Earlier results as cited in patent US20240424053A1, “METHODS AND COMPOSITIONS FOR PROVIDING MYOCARDIAL PROTECTION AND TREATING MYOCARDIAL STRESS AND FIBROSIS” (Tufts Medical Center, Inc., priority 2021, published 2024).

Target: T1, Xa (Homo sapiens, UniProt P00742)
T1 construct: host or cells: HF patients
Conditions: in vivo; cited from earlier work

T1 sequence (P00742 235-488 limits assumed): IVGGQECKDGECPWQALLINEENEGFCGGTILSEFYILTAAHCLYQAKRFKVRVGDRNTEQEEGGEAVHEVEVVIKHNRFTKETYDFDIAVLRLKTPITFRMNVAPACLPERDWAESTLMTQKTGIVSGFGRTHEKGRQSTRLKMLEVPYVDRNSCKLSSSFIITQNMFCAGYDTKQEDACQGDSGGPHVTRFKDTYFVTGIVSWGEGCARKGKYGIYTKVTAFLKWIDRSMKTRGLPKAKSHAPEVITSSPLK
T1 sequence (P00742 41-179 partner limits assumed): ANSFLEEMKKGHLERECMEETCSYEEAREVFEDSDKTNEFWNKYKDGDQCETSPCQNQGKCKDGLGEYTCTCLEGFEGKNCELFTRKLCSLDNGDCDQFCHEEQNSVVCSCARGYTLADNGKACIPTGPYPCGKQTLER

In the case of `O=C(NC[C@H]1CN(c2ccc(N3CCOCC3=O)cc2)C(=O)O1)c1ccc(Cl)s1` [rivaroxaban], the “clinical benefit in HF patients” value is listed as “no clear benefit”.
